What was measured:
swine liver esterase = experiment: Decomposition of glutathione derivatives by swine liver esterase (physiological stability); format: in vitro ADME; conditions: BSA/D-PBS pH 7.4, 196-244 μg/ml
Method: (§1) (1) Bovine serum albumin (hereinafter referred to as BSA), Dulbecco's phosphate buffered saline (hereinafter referred to as D-PBS), swine liver esterase, and rabbit liver esterase were purchased from Sigma, 6-week old male SD rats were purchased from Nippon SLC, and 12-week old or older male Japanese white rabbits were purchased from Ichikawaya. On the day of the incubation experiment described below, blood was drawn from the animals in the presence of heparin, and plasma was separated therefrom for use. Human plasma was obtained from normal healthy males after obtaining their consent.
(§2) (2) The glutathione derivatives described in the Examples and Comparative Examples of the present invention were incubated for a fixed time in an enzyme solution having the following composition. Acetonitrile was added to the reaction mixture to inactivate the enzyme thereby to stop the reaction. The concentration of the glutathione derivatives in the deproteinized supernatant was measured by HPLC. For each time point of the esterase enzyme experiment, the mean values from two measurement or more were determined, and for the rats and rabbits the mean values of plasma samples from three individuals were determined. For some of the experiment data, changes with time of percentages relative to initial concentration of the glutathione derivative are shown in FIGS. 2 to 4.
(§3) Swine liver esterase and rabbit liver esterase experiment
(§4) 30 mg-BSA/ml-D-PBS (pH 7.4): 36 to 45 parts
(§5) Swine or rabbit liver esterase/D-PBS: 4-5 parts
(§6) 10 mg-glutathione derivative/ml-ethanol: one part (the final concentration in the reaction mixture is 196-244 μg/ml)

rabbit liver esterase = experiment: Decomposition of glutathione derivatives by rabbit liver esterase (physiological stability); format: in vitro ADME; conditions: BSA/D-PBS pH 7.4, 196-244 μg/ml
Method: as §1, §2, §3, §4, §5, §6

[1] = Stability in rabbit plasma; conditions: heparinized plasma, 250-323 μg/ml
Method: as §1, §2
Rat, rabbit, and human plasma
Heparinized plasma: 30 to 40 parts
10 mg-glutathione derivative/ml-ethanol: one part (the final concentration in the reaction mixture is 250-323 μg/ml)

[2] = Pharmacokinetics after intravenous administration to rabbits, 2-compartment model (Example 25); format: in vivo, rabbit; conditions: iv auricular vein 2 ml/kg, fat emulsion (Comparative Ex. 1: HPCD/glucose solution)
Source text: For the glutathione derivative of the present invention having a long-chain ester having 12 carbons or more and the glutathione derivatives of the conventional technology of Comparative Examples 1 and 2, kinetics in the blood were compared in rabbits that are a species having allow esterase activity in the blood.
(1) Male Japanese white rabbits, 12-week old or older, were purchased from Ichikawaya, and those rabbits that became 15-week old or older and whose body weight reached about 3 kg were used for the experiment. During the period up to the experiment, the animals were allowed free access to the animal feed and drinking water and were kept at a temperature of 24±2° C. and a humidity of 55±5%.
(2) The glutathione derivative having a long-chain ester of 12 carbons or more and the glutathione derivative of Comparative Example 2 were prepared at 20-200 mg/ml in a mixture of ethanol or ethanol:benzyl alcohol, which was mixed with the fat emulsion just prior to use, and was filtered with a 1.2 μm filter to obtain a liquid for intravenous administration. On the other hand, the glutathione derivative of Comparative Example 1 was dissolved in an aqueous solution of 6%-hydroxypropyl-β-cyclodextrin/5%-glucose at 15 mg/ml to obtain an administration liquid.
(3) The administration liquid of the glutathione derivative obtained in (2) at a dose of 2 ml/kg was rapidly infused into the left auricular vein of the rabbits under no anesthesia and under restraint at a rate of 1 ml/min. Each glutathione derivative was given to three or more rabbits. At 5, 10, 15, 30, 60, 120, and 240 minutes after the completion of the administration, 1 ml of the blood was drawn from the right auricular vein in the presence of heparin, which was immediately cooled on ice. Plasma was obtained by centrifuging the blood, 1-2 volume parts of acetonitrile was added to deproteinize the supernatant, which was filtered by a 0.5 μm filter. The supernatant of the filtrate was quantitated by HPLC.

[3] = test system: rat models of suppressed hematopoietic function by 5-FU administration; experiment: Ratio of segmented neutrophils in rat models of suppressed hematopoietic function by 5-FU (Example 27); format: in vivo; conditions: 5-FU rats
Method: (1) The animals used are the same as in Example 26. The keeping condition was a temperature of 23±2° C. and a humidity of 55±15%.
(2) The creation of the 5-FU administration model, the administration of test substances, and the blood collection schedule were carried out in a similar manner to Example 26. Hematological tests were carried out using the Toa multi-channel automatic cell counter K-4500 or Toa Sysmex CC-180A automatic cell counter, differential counts of white blood cells were carried out by May-Giemsa stain followed by microscopic examination, reticulocytes were counted by the Brecher method.
(3) Using the same schedule as in Example 26, the negative control group that only received the fat emulsion after 5-FU administration, the group that received the glutathione derivative of Example 4 at 30 mg/kg-body weight/day as a test substance together with the fat emulsion, the group that similarly received the glutathione derivative of Example 1 at 10 or 30 mg/kg-body weight/day, and the group that received the glutathione derivative of Example 7 at 30 or 60 mg/kg-body weight/day were studied.

[4] = test system: rat models of suppressed hematopoietic function by 5-FU administration; experiment: Recovery of neutrophil counts in rat models of suppressed hematopoietic function by 5-FU (Example 26); format: in vivo; conditions: 5-FU rats; 10 μg/kg-body weight/day, days 2-10; day 4 and from day 8
Source text: Regarding the effect of promoting the recovery of neutrophil counts in rat models of suppressed hematopoietic function by 5-fuluorouracil administration, statistical significance was compared to the control group to compare the pharmaceutical composition containing Example 4 of the present invention as an active ingredient with the pharmaceutical composition of the conventional technology of Comparative Example 1 and granulocyte colony-stimulating factor (G-CSF).
(1) Animals used and the keeping condition: Male SD rats, 6-week old, purchased from Nippon SLC were used. The animal feed (manufactured by Oriental Yeast Co., Ltd.) and drinking water (well water treated with 0.4±0.2 ppm hypochlorous acid) were given ad libitum during the period of the experiment. The animals were housed in a hanging-type rat cage (manufactured by Nippon Cage K.K.) and kept at a temperature of 24±2° C. and a humidity of 55±5%.
(2) Creation of rat models of suppressed hematopoietic function by 5-FU administration; Creation of rat models of suppressed hematopoietic function by 5-FU (Kyowa Hakko Kogyo Co. Ltd.) administration was carried out based on the method of Akamatsu et al. (Yakuri to Chiryo(Pharmacology and Therapy), 18. (Suppl. 9), 317-356 (1990)). Thus, on the first day of the experiment, 5-FU at 50 mg/kg-body weight (dosage volume is 1 ml/kg-body weight) or the same amount of physiological saline (manufactured by Fuso Pharmaceuticals Industries, Ltd.) was intraperitoneally administered to the rats described in (1). On days 4, and 7-12, blood was drawn from the jugular vein and the EDTA-2K-treated blood was obtained. The blood was used to determine the neutrophil count using a general chemistry test instrument (Technicon H-1E, manufactured by Bayer-Sankyo K.K.) and the ratio of reticulocytes using a reticulocyte determination instrument (EPICS, XL-MCL, manufactured by Coulter K.K.). Blood was also drawn on day 1 of the experiment, and the values determined for the blood were used as the pre-administration values.
In the physiological saline administration group, no changes in neutrophil count were observed throughout the experiment period, whereas in the 5-FU administration group there was a reduction in neutrophil count with the lowest value observed on day 8 of the experiment, and the neutrophil count was recovered to the value before 5-FU administration or higher on day 10 of the experiment or after. The above results confirmed that rat models of suppressed hematopoietic function can be created by a single intraperitoneal administration of 5-FU at 50 mg/kg-body weight.
(3) Evaluation of Example 4 and Comparative Example 1 in the above model; To the model described in (2), the glutathione derivative of Example 4 combined with the fat emulsion at 10 to 30 mg/kg-body weight/day or the glutathione derivative of Comparative Example 1 dissolved in a physiological saline containing 2.5% hydroxypropyl-β-cyclodextrin at 50 mg/kg-body weight/day was repeatedly administered into the tail vein for 9 days from day 2 to 10 of the experiment. The recombinant human G-CSF formulation (hereinafter referred to as G-CSF, manufactured by Chugai Pharmaceutical Co., Ltd.) as the positive control at 10 μg/kg-body weight/day and the empty fat emulsion as the negative control were administered in a similar manner. […]

[5] = 30 mg/kg-body weight/day with fat emulsion

## CCCCCCCCCCCCCCCCCCOC(=O)[C@@H](N)CCC(=O)N[C@@H](CSCc1ccccc1)C(=O)N[C@@H](C(=O)OCC)c1ccccc1.Cl [Example 1, Glu(Cys(Bzl)-D-Phg-OEt)-O(Octadecyl)hydrochloride]
Swine liver esterase
  Decomposition rate constant by swine liver esterase: 0.0901 10^−4/unit/min
Rabbit liver esterase
  Decomposition rate constant by rabbit liver esterase: 0.300 10^−4/unit/min
[1]
  Half life in rabbit plasma: 408.57 h
[2]
  Clearance per body weight: 0.5 mL/min/kg
  Distribution volume per body weight of the central compartment: 0.06 L/kg
[3]; 10 mg/kg-body weight/day with fat emulsion
  Recovery of segmented neutrophil counts relative to the negative control: tendency of promoting the recovery of segmented neutrophil counts
[3]; [5]
  Recovery of segmented neutrophil counts relative to the negative control: tendency of promoting the recovery of segmented neutrophil counts

## CCCCCCCCCCCCCCOC(=O)[C@@H](N)CCC(=O)N[C@@H](CSCc1ccccc1)C(=O)N[C@@H](C(=O)OCC)c1ccccc1.Cl [Example 6, Glu(Cys(Bzl)-D-Phg-OEt)-O(Tetradecyl)hydrochloride]
Swine liver esterase
  Decomposition rate constant by swine liver esterase: 2.61 10^−4/unit/min
Rabbit liver esterase
  Decomposition rate constant by rabbit liver esterase: 5.11 10^−4/unit/min
[1]
  Half life in rabbit plasma: 18.07 h
[2]
  Clearance per body weight: 4.83 mL/min/kg
  Distribution volume per body weight of the central compartment: 0.08 L/kg

## CCCCCCCCCCCCOC(=O)[C@@H](N)CCC(=O)N[C@@H](CSCc1ccccc1)C(=O)N[C@@H](C(=O)OCC)c1ccccc1.Cl [Example 7, Glu(Cys(Bzl)-D-Phg-OEt)-O(Dodecyl)hydrochloride]
Swine liver esterase
  Decomposition rate constant by swine liver esterase: 15.2 10^−4/unit/min
Rabbit liver esterase
  Decomposition rate constant by rabbit liver esterase: 21.1 10^−4/unit/min
[1]
  Half life in rabbit plasma: 5.38 h
[2]
  Clearance per body weight: 47.5 mL/min/kg
  Distribution volume per body weight of the central compartment: 0.47 L/kg
[3]; [5]
  Recovery of segmented neutrophil counts relative to the negative control: no changes relative to the negative control
[3]; 60 mg/kg-body weight/day with fat emulsion, days 11 and 12
  Recovery of neutrophil counts relative to the negative control: tendency of promoting the recovery of neutrophil counts

B1: G-CSF: recombinant human G-CSF formulation, manufactured by Chugai Pharmaceutical Co., Ltd., positive control (protein, UniProt P09919 31-207, looked up)
Granulocyte …: TPLGPASSLPQSFLLKCLEQVRKIQGDGAALQEKLVSECATYKLCHPEELVLLGHSLGIPWAPLSSCPSQALQLAGCLSQLHSGLFLYQGLLQALEGISPELGPTLDTLQLDVADFATTIWQQMEELGMAPALQPTQGAMPAFASAFQRRAGGVLVASHLQSFLEVSYRVLRHLAQP
[4]
  Neutrophil counts relative to the negative control group: statistically significant increase in neutrophil counts

Reference: patent US6627732B1, “Glutathione derivatives and their dosage forms” (Teijin Limited, priority 1998, dated 2003)
